Assay results from PubChem BioAssay AID248 (DTP/NCI, 2004).
Several values for one entry are separate records, joined by “and”; a condition that tells them apart may be missing. Identical values can stand only once. Toxic doses and inconclusive results are not listed. Cut-off read from the data, not from the text of the source: active = T/C of 150% or more; inactive = T/C below 125%.

System: L1210 leukemia ip in BDF1 mice, survival T/C
Test: NCI In Vivo Anticancer Drug Screen. Data for tumor model L1210 Leukemia (intraperitoneal) in B6D2F1 (BDF1) mice
Conditions: higher = longer survival
Procedure, shortened: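 Value reflects the ratio of survival in compound-treated mice to survival in vehicle-treated controls, with both groups carrying the same transplanted tumor.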

Measured: T/C

O=S(=O)(F)c1c(Cl)cccc1C[P+](c1ccccc1)(c1ccccc1)c1ccccc1
inactive: endpoint: mean survival time, dose: 6.25 mg/kg/injection, schedule: Q01DX001 (ip), vehicle: saline with Tween-80 99 % of control | endpoint: mean survival time, dose: 12.5 mg/kg/injection, schedule: Q01DX001 (ip), vehicle: saline with Tween-80 100 % of control | endpoint: mean survival time, dose: 25.0 mg/kg/injection, schedule: Q01DX001 (ip), vehicle: saline 105 % of control

N=[N+]=CC(=O)OCC(N)C(=O)O (centres undefined)
inactive: endpoint: mean survival time, dose: 0.06 mg/kg/injection, schedule: Q#A X Z (ip), vehicle: saline 117 % of control | endpoint: mean survival time, dose: 0.43 mg/kg/injection, schedule: Q01DX009 (ip), vehicle: saline 111 % of control | endpoint: mean survival time, dose: 0.5 mg/kg/injection, schedule: Q01DX010 (ip), vehicle: saline 119 % of control | endpoint: mean survival time, dose: 0.5 mg/kg/injection, schedule: Q01DX Z (ip), vehicle: saline 117 % of control and 118 % of control | endpoint: mean survival time, dose: 0.85 mg/kg/injection, schedule: Q01DX009 (ip), vehicle: saline 105 % of control and 111 % of control | endpoint: mean survival time, dose: 1.0 mg/kg/injection, schedule: Q01DX Z (ip), vehicle: saline 115 % of control | endpoint: mean survival time, dose: 1.3 mg/kg/injection, schedule: Q04DX002 (ip), vehicle: saline 98 % of control and 112 % of control | endpoint: mean survival time, dose: 1.7 mg/kg/injection, schedule: Q01DX009 (ip), vehicle: saline 115 % of control | endpoint: mean survival time, dose: 1.8 mg/kg/injection, schedule: Q01DX Z (ip), vehicle: carboxymethylcellulose (CMC) 108 % of control and 120 % of control | endpoint: mean survival time, dose: 2.0 mg/kg/injection, schedule: Q01DX005 (ip), vehicle: saline 114 % of control | endpoint: mean survival time, dose: 2.0 mg/kg/injection, schedule: Q01DX Z (oral), vehicle: saline 110 % of control | endpoint: mean survival time, dose: 2.0 mg/kg/injection, schedule: Q01DX Z (sc), vehicle: saline 118 % of control | endpoint: mean survival time, dose: 2.5 mg/kg/injection, schedule: Q04DX002 (ip), vehicle: saline 106 % of control and 110 % of control | endpoint: mean survival time, dose: 3.5 mg/kg/injection, schedule: Q07DX003 (ip), vehicle: saline 115 % of control | endpoint: mean survival time, dose: 4.0 mg/kg/injection, schedule: Q01DX009 (ip), vehicle: saline 121 % of control | endpoint: mean survival time, dose: 4.0 mg/kg/injection, schedule: Q01DX Z (im), vehicle: saline 118 % of control | endpoint: mean survival time, dose: 4.0 mg/kg/injection, schedule: Q01DX Z (sc), vehicle: saline 119 % of control | endpoint: mean survival time, dose: 4.0 mg/kg/injection, schedule: Q03HX024 (oral), vehicle: saline 117 % of control | endpoint: mean survival time, dose: 4.0 mg/kg/injection, schedule: Q## X003 (ip), vehicle: saline 106 % of control | endpoint: mean survival time, dose: 5.0 mg/kg/injection, schedule: Q04DX002 (ip), vehicle: saline 117 % of control and 121 % of control | endpoint: mean survival time, dose: 7.0 mg/kg/injection, schedule: Q07DX003 (ip), vehicle: saline 117 % of control | endpoint: mean survival time, dose: 8.0 mg/kg/injection, schedule: Q01DX009 (ip), vehicle: saline 121 % of control | endpoint: mean survival time, dose: 8.0 mg/kg/injection, schedule: Q01DX009 (oral), vehicle: saline 105 % of control and 107 % of control | endpoint: mean survival time, dose: 8.0 mg/kg/injection, schedule: Q04DX003 (ip), vehicle: saline 113 % of control | endpoint: mean survival time, dose: 8.0 mg/kg/injection, schedule: Q## X002 (ip), vehicle: saline 102 % of control | endpoint: mean survival time, dose: 8.0 mg/kg/injection, schedule: Q## X003 (ip), vehicle: saline 107 % of control and 113 % of control | endpoint: mean survival time, dose: 8.0 mg/kg/injection, schedule: Q## X003 (oral), vehicle: saline 97 % of control and 101 % of control | endpoint: mean survival time, dose: 8.0 mg/kg/injection, schedule: Q## X024 (oral), vehicle: saline 106 % of control | endpoint: mean survival time, dose: 14.0 mg/kg/injection, schedule: Q01DX001 (ip), vehicle: saline 120 % of control and 121 % of control | endpoint: mean survival time, dose: 14.0 mg/kg/injection, schedule: Q07DX003 (ip), vehicle: saline 117 % of control | endpoint: mean survival time, dose: 16.0 mg/kg/injection, schedule: Q01DX001 (ip), vehicle: saline 108 % of control | endpoint: mean survival time, dose: 16.0 mg/kg/injection, schedule: Q01DX001 (sc), vehicle: saline 98 % of control | endpoint: mean survival time, dose: 16.0 mg/kg/injection, schedule: Q01DX006 (iv), vehicle: saline 107 % of control | endpoint: mean survival time, dose: 16.0 mg/kg/injection, schedule: Q04DX003 (ip), vehicle: saline 112 % of control | endpoint: mean survival time, dose: 16.0 mg/kg/injection, schedule: Q04DX003 (oral), vehicle: saline 101 % of control and 104 % of control | endpoint: mean survival time, dose: 16.0 mg/kg/injection, schedule: Q## X002 (ip), vehicle: saline 103 % of control | endpoint: mean survival time, dose: 16.0 mg/kg/injection, schedule: Q## X003 (ip), vehicle: saline 116 % of control | endpoint: mean survival time, dose: 16.0 mg/kg/injection, schedule: Q## X003 (oral), vehicle: saline 111 % of control and 113 % of control | endpoint: mean survival time, dose: 16.0 mg/kg/injection, schedule: Q## X024 (oral), vehicle: saline 97 % of control and 104 % of control | endpoint: mean survival time, dose: 18.0 mg/kg/injection, schedule: Q01DX014 (ip), vehicle: saline 117 % of control | endpoint: mean survival time, dose: 27.0 mg/kg/injection, schedule: Q01DX001 (ip), vehicle: saline 104 % of control | endpoint: mean survival time, dose: 28.0 mg/kg/injection, schedule: Q01DX001 (ip), vehicle: saline 120 % of control | endpoint: mean survival time, dose: 28.0 mg/kg/injection, schedule: Q07DX003 (ip), vehicle: saline 120 % of control | endpoint: mean survival time, dose: 32.0 mg/kg/injection, schedule: Q01DX001 (ip), vehicle: saline 111 % of control | endpoint: mean survival time, dose: 32.0 mg/kg/injection, schedule: Q01DX001 (sc), vehicle: saline 105 % of control | endpoint: mean survival time, dose: 32.0 mg/kg/injection, schedule: Q01DX009 (ip), vehicle: saline 102 % of control and 119 % of control | endpoint: mean survival time, dose: 32.0 mg/kg/injection, schedule: Q01DX009 (sc), vehicle: saline 109 % of control | endpoint: mean survival time, dose: 32.0 mg/kg/injection, schedule: Q01DX Z (ip), vehicle: saline 95 % of control | endpoint: mean survival time, dose: 32.0 mg/kg/injection, schedule: Q01DX Z (sc), vehicle: saline 118 % of control | endpoint: mean survival time, dose: 32.0 mg/kg/injection, schedule: Q04DX003 (ip), vehicle: saline 115 % of control | endpoint: mean survival time, dose: 32.0 mg/kg/injection, schedule: Q04DX003 (oral), vehicle: saline 110 % of control | endpoint: mean survival time, dose: 32.0 mg/kg/injection, schedule: Q## X002 (ip), vehicle: saline 120 % of control | endpoint: mean survival time, dose: 32.0 mg/kg/injection, schedule: Q## X003 (ip), vehicle: saline 117 % of control | endpoint: mean survival time, dose: 32.0 mg/kg/injection, schedule: Q## X003 (oral), vehicle: saline 109 % of control and 120 % of control | endpoint: mean survival time, dose: 32.0 mg/kg/injection, schedule: Q## X024 (oral), vehicle: saline 121 % of control | endpoint: mean survival time, dose: 35.0 mg/kg/injection, schedule: Q02DX010 (ip), vehicle: other 95 % of control | endpoint: mean survival time, dose: 36.0 mg/kg/injection, schedule: Q02DX010 (ip), vehicle: other 110 % of control | endpoint: mean survival time, dose: 40.0 mg/kg/injection, schedule: Q01DX001 (ip), vehicle: saline 112 % of control | endpoint: mean survival time, dose: 40.0 mg/kg/injection, schedule: Q01DX Z (ip), vehicle: saline 99 % of control | endpoint: mean survival time, dose: 52.0 mg/kg/injection, schedule: Q02DX010 (ip), vehicle: carboxymethylcellulose (CMC) 107 % of control | endpoint: mean survival time, dose: 54.0 mg/kg/injection, schedule: Q02DX010 (ip), vehicle: other 106 % of control | endpoint: mean survival time, dose: 60.0 mg/kg/injection, schedule: Q01DX001 (ip), vehicle: saline 121 % of control | endpoint: mean survival time, dose: 64.0 mg/kg/injection, schedule: Q01DX001 (ip), vehicle: saline 110 % of control | endpoint: mean survival time, dose: 64.0 mg/kg/injection, schedule: Q01DX001 (oral), vehicle: saline 103 % of control | endpoint: mean survival time, dose: 64.0 mg/kg/injection, schedule: Q01DX001 (sc), vehicle: saline 110 % of control | endpoint: mean survival time, dose: 64.0 mg/kg/injection, schedule: Q04DX003 (ip), vehicle: saline 104 % of control and 112 % of control | endpoint: mean survival time, dose: 64.0 mg/kg/injection, schedule: Q04DX003 (oral), vehicle: saline 106 % of control and 120 % of control | endpoint: mean survival time, dose: 64.0 mg/kg/injection, schedule: Q## X002 (ip), vehicle: saline 118 % of control | endpoint: mean survival time, dose: 64.0 mg/kg/injection, schedule: Q## X003 (oral), vehicle: saline 117 % of control and 119 % of control | endpoint: mean survival time, dose: 72.0 mg/kg/injection, schedule: Q## X032 (ip), vehicle: saline 115 % of control and 116 % of control | endpoint: mean survival time, dose: 80.0 mg/kg/injection, schedule: Q04DX002 (ip), vehicle: saline 104 % of control | endpoint: mean survival time, dose: 96.0 mg/kg/injection, schedule: Q03DX006 (ip), vehicle: saline 102 % of control | endpoint: mean survival time, dose: 108.0 mg/kg/injection, schedule: Q## X032 (ip), vehicle: saline 101 % of control | endpoint: mean survival time, dose: 112.0 mg/kg/injection, schedule: Q01DX001 (ip), vehicle: saline 114 % of control | endpoint: mean survival time, dose: 128.0 mg/kg/injection, schedule: Q01DX001 (sc), vehicle: saline 105 % of control | endpoint: mean survival time, dose: 128.0 mg/kg/injection, schedule: Q04DX003 (oral), vehicle: saline 110 % of control | endpoint: mean survival time, dose: 128.0 mg/kg/injection, schedule: Q## X024 (ip), vehicle: saline 112 % of control | endpoint: median survival time, dose: 0.25 mg/kg/injection, schedule: Q03HX024 (ip), vehicle: water 105 % of control | endpoint: median survival time, dose: 2.0 mg/kg/injection, schedule: Q01DX009 (ip), vehicle: water 120 % of control

CC(=O)Oc1ccc2c3c(ccc2c1)CCCC3
inactive: endpoint: mean survival time, dose: 50.0 mg/kg/injection, schedule: Q01DX009 (ip), vehicle: Klucel (hydroxypropylcellulose) (HPC) 90 % of control | endpoint: mean survival time, dose: 200.0 mg/kg/injection, schedule: Q01DX009 (ip), vehicle: Klucel (hydroxypropylcellulose) (HPC) 90 % of control
